± gives the uncertainty stated by the source.
Test: xn = mol fraction of the nth substance listed

CCCCCCCCCCCC[N+](C)(C)C.[Br-] + O
Settings	electrical conductivity [S/m]	viscosity [mPa·s]
293.15 K, 100 kPa, x1 = 5.406e-05	–	0.982 ± 0.027
293.15 K, 100 kPa, x1 = 0.0001081	–	0.984 ± 0.027
293.15 K, 100 kPa, x1 = 0.0001622	–	0.985 ± 0.027
293.15 K, 100 kPa, x1 = 0.0002162	–	0.987 ± 0.027
293.15 K, 100 kPa, x1 = 0.0002702	–	0.989 ± 0.027
293.15 K, 100 kPa, x1 = 0.0003242	–	0.991 ± 0.027
293.15 K, 100 kPa, x1 = 0.0003783	–	0.993 ± 0.027
293.15 K, 100 kPa, x1 = 0.0004323	–	0.995 ± 0.027
293.15 K, 100 kPa, x1 = 0.0004863	–	0.999 ± 0.027
293.15 K, 100 kPa, x1 = 0.0005403	–	1 ± 0.027
293.15 K, 101 kPa, x1 = 5.406e-05	–	0.985 ± 0.06
293.15 K, 101 kPa, x1 = 0.0001081	–	0.986 ± 0.06
293.15 K, 101 kPa, x1 = 0.0001622	–	0.988 ± 0.06
293.15 K, 101 kPa, x1 = 0.0002162	–	0.99 ± 0.06
293.15 K, 101 kPa, x1 = 0.0002702	–	0.992 ± 0.06
293.15 K, 101 kPa, x1 = 0.0003242	–	0.994 ± 0.06
293.15 K, 101 kPa, x1 = 0.0003783	–	0.996 ± 0.06
293.15 K, 101 kPa, x1 = 0.0004323	–	0.998 ± 0.06
293.15 K, 101 kPa, x1 = 0.0004863	–	1.001 ± 0.061
293.15 K, 101 kPa, x1 = 0.0005403	–	1.004 ± 0.061
298 K, 101 kPa, x1 = 0.0001567	0.079 ± 0.006	–
298 K, 101 kPa, x1 = 0.0001676	0.084 ± 0.007	–
298 K, 101 kPa, x1 = 0.000182	0.09 ± 0.007	–
298 K, 101 kPa, x1 = 0.0001874	0.093 ± 0.007	–
298 K, 101 kPa, x1 = 0.0001946	0.096 ± 0.008	–
298 K, 101 kPa, x1 = 0.0002054	0.099 ± 0.008	–
298 K, 101 kPa, x1 = 0.0002144	0.105 ± 0.008	–
298 K, 101 kPa, x1 = 0.0002252	0.111 ± 0.009	–
298 K, 101 kPa, x1 = 0.000236	0.115 ± 0.009	–
298.15 K, 100 kPa, x1 = 5.406e-05	–	0.853 ± 0.027
298.15 K, 100 kPa, x1 = 0.0001081	–	0.855 ± 0.026
298.15 K, 100 kPa, x1 = 0.0001622	–	0.855 ± 0.026
298.15 K, 100 kPa, x1 = 0.0002162	–	0.857 ± 0.026
298.15 K, 100 kPa, x1 = 0.0002702	–	0.86 ± 0.026
298.15 K, 100 kPa, x1 = 0.0003242	–	0.86 ± 0.026
298.15 K, 100 kPa, x1 = 0.0003783	–	0.861 ± 0.026
298.15 K, 100 kPa, x1 = 0.0004323	–	0.863 ± 0.026
298.15 K, 100 kPa, x1 = 0.0004863	–	0.864 ± 0.026
298.15 K, 100 kPa, x1 = 0.0005403	–	0.866 ± 0.027
298.15 K, 101 kPa, x1 = 4.307e-05	0.02398 ± 5e-05	–
298.15 K, 101 kPa, x1 = 5.406e-05	–	0.853 ± 0.052
298.15 K, 101 kPa, x1 = 5.568e-05	0.0306 ± 6e-05	–
298.15 K, 101 kPa, x1 = 6.865e-05	0.03743 ± 8e-05	–
298.15 K, 101 kPa, x1 = 8.144e-05	0.04413 ± 9e-05	–
298.15 K, 101 kPa, x1 = 9.46e-05	0.0508 ± 0.0001	–
298.15 K, 101 kPa, x1 = 0.0001068	0.05714 ± 0.00011	–
298.15 K, 101 kPa, x1 = 0.0001081	–	0.854 ± 0.052
298.15 K, 101 kPa, x1 = 0.0001198	0.06364 ± 0.00013	–
298.15 K, 101 kPa, x1 = 0.0001322	0.06995 ± 0.00014	–
298.15 K, 101 kPa, x1 = 0.0001456	0.07656 ± 0.00015	–
298.15 K, 101 kPa, x1 = 0.0001584	0.0829 ± 0.00017	–
298.15 K, 101 kPa, x1 = 0.0001622	–	0.856 ± 0.052
298.15 K, 101 kPa, x1 = 0.0001704	0.08876 ± 0.00018	–
298.15 K, 101 kPa, x1 = 0.0001857	0.09628 ± 0.00019	–
298.15 K, 101 kPa, x1 = 0.0002009	0.1036 ± 0.00021	–
298.15 K, 101 kPa, x1 = 0.0002126	0.1093 ± 0.00022	–
298.15 K, 101 kPa, x1 = 0.0002162	–	0.858 ± 0.052
298.15 K, 101 kPa, x1 = 0.0002243	0.1151 ± 0.00023	–
298.15 K, 101 kPa, x1 = 0.0002466	0.1259 ± 0.00025	–
298.15 K, 101 kPa, x1 = 0.0002495	0.1271 ± 0.00025	–
298.15 K, 101 kPa, x1 = 0.0002564	0.1305 ± 0.00026	–
298.15 K, 101 kPa, x1 = 0.0002702	–	0.859 ± 0.052
298.15 K, 101 kPa, x1 = 0.0002992	0.1437 ± 0.00029	–
298.15 K, 101 kPa, x1 = 0.000323	0.1474 ± 0.00029	–
298.15 K, 101 kPa, x1 = 0.0003242	–	0.861 ± 0.052
298.15 K, 101 kPa, x1 = 0.0003333	0.1488 ± 0.0003	–
298.15 K, 101 kPa, x1 = 0.0003783	–	0.862 ± 0.052
298.15 K, 101 kPa, x1 = 0.0004323	–	0.864 ± 0.052
298.15 K, 101 kPa, x1 = 0.0004863	–	0.861 ± 0.052
298.15 K, 101 kPa, x1 = 0.0005403	–	0.867 ± 0.052
303.15 K, 100 kPa, x1 = 5.406e-05	–	0.772 ± 0.026
303.15 K, 100 kPa, x1 = 0.0001081	–	0.773 ± 0.026
303.15 K, 100 kPa, x1 = 0.0001622	–	0.774 ± 0.026
303.15 K, 100 kPa, x1 = 0.0002162	–	0.775 ± 0.026
303.15 K, 100 kPa, x1 = 0.0002702	–	0.777 ± 0.026
303.15 K, 100 kPa, x1 = 0.0003242	–	0.78 ± 0.026
303.15 K, 100 kPa, x1 = 0.0003783	–	0.784 ± 0.026
303.15 K, 100 kPa, x1 = 0.0004323	–	0.786 ± 0.026
303.15 K, 100 kPa, x1 = 0.0004863	–	0.799 ± 0.026
303.15 K, 100 kPa, x1 = 0.0005403	–	0.803 ± 0.026
303.15 K, 101 kPa, x1 = 5.406e-05	–	0.772 ± 0.047
303.15 K, 101 kPa, x1 = 0.0001081	–	0.772 ± 0.047
303.15 K, 101 kPa, x1 = 0.0001622	–	0.774 ± 0.047
303.15 K, 101 kPa, x1 = 0.0002162	–	0.775 ± 0.047
303.15 K, 101 kPa, x1 = 0.0002702	–	0.778 ± 0.047
303.15 K, 101 kPa, x1 = 0.0003242	–	0.78 ± 0.047
303.15 K, 101 kPa, x1 = 0.0003783	–	0.785 ± 0.047
303.15 K, 101 kPa, x1 = 0.0004323	–	0.786 ± 0.048
303.15 K, 101 kPa, x1 = 0.0004863	–	0.799 ± 0.048
303.15 K, 101 kPa, x1 = 0.0005403	–	0.802 ± 0.048
308 K, 101 kPa, x1 = 0.0001513	0.078 ± 0.006	–
308 K, 101 kPa, x1 = 0.0001694	0.085 ± 0.007	–
308 K, 101 kPa, x1 = 0.0001892	0.094 ± 0.008	–
308 K, 101 kPa, x1 = 0.0002486	0.121 ± 0.01	–
308 K, 101 kPa, x1 = 0.0002774	0.135 ± 0.011	–
308 K, 101 kPa, x1 = 0.0003945	0.155 ± 0.012	–
308.15 K, 100 kPa, x1 = 5.406e-05	–	0.696 ± 0.026
308.15 K, 100 kPa, x1 = 0.0001081	–	0.697 ± 0.026
308.15 K, 100 kPa, x1 = 0.0001622	–	0.698 ± 0.026
308.15 K, 100 kPa, x1 = 0.0002162	–	0.699 ± 0.026
308.15 K, 100 kPa, x1 = 0.0002702	–	0.701 ± 0.026
308.15 K, 100 kPa, x1 = 0.0003242	–	0.705 ± 0.026
308.15 K, 100 kPa, x1 = 0.0003783	–	0.708 ± 0.026
308.15 K, 100 kPa, x1 = 0.0004323	–	0.711 ± 0.026
308.15 K, 100 kPa, x1 = 0.0004863	–	0.715 ± 0.026
308.15 K, 100 kPa, x1 = 0.0005403	–	0.716 ± 0.026
308.15 K, 101 kPa, x1 = 5.406e-05	–	0.696 ± 0.042
308.15 K, 101 kPa, x1 = 0.0001081	–	0.697 ± 0.042
308.15 K, 101 kPa, x1 = 0.0001622	–	0.698 ± 0.042
308.15 K, 101 kPa, x1 = 0.0002162	–	0.699 ± 0.042
308.15 K, 101 kPa, x1 = 0.0002702	–	0.701 ± 0.042
308.15 K, 101 kPa, x1 = 0.0003242	–	0.705 ± 0.043
308.15 K, 101 kPa, x1 = 0.0003783	–	0.709 ± 0.043
308.15 K, 101 kPa, x1 = 0.0004323	–	0.711 ± 0.043
308.15 K, 101 kPa, x1 = 0.0004863	–	0.714 ± 0.043
308.15 K, 101 kPa, x1 = 0.0005403	–	0.716 ± 0.043
313.15 K, 100 kPa, x1 = 5.406e-05	–	0.611 ± 0.026
313.15 K, 100 kPa, x1 = 0.0001081	–	0.612 ± 0.026
313.15 K, 100 kPa, x1 = 0.0001622	–	0.614 ± 0.026
313.15 K, 100 kPa, x1 = 0.0002162	–	0.617 ± 0.026
313.15 K, 100 kPa, x1 = 0.0002702	–	0.617 ± 0.026
313.15 K, 100 kPa, x1 = 0.0003242	–	0.62 ± 0.026
313.15 K, 100 kPa, x1 = 0.0003783	–	0.624 ± 0.026
313.15 K, 100 kPa, x1 = 0.0004323	–	0.626 ± 0.026
313.15 K, 100 kPa, x1 = 0.0004863	–	0.628 ± 0.026
313.15 K, 100 kPa, x1 = 0.0005403	–	0.63 ± 0.026
318 K, 101 kPa, x1 = 0.0001513	0.08 ± 0.006	–
318 K, 101 kPa, x1 = 0.0001748	0.09 ± 0.007	–
318 K, 101 kPa, x1 = 0.0001964	0.101 ± 0.008	–
318 K, 101 kPa, x1 = 0.0002252	0.113 ± 0.009	–
318 K, 101 kPa, x1 = 0.0002486	0.125 ± 0.01	–
318 K, 101 kPa, x1 = 0.000317	0.152 ± 0.012	–
318 K, 101 kPa, x1 = 0.0003369	0.157 ± 0.013	–
318 K, 101 kPa, x1 = 0.0003945	0.165 ± 0.013	–
318 K, 101 kPa, x1 = 0.0004305	0.169 ± 0.014	–
318.15 K, 100 kPa, x1 = 5.406e-05	–	0.582 ± 0.026
318.15 K, 100 kPa, x1 = 0.0001081	–	0.584 ± 0.026
318.15 K, 100 kPa, x1 = 0.0001622	–	0.585 ± 0.026
318.15 K, 100 kPa, x1 = 0.0002162	–	0.587 ± 0.026
318.15 K, 100 kPa, x1 = 0.0002702	–	0.588 ± 0.026
318.15 K, 100 kPa, x1 = 0.0003242	–	0.589 ± 0.026
318.15 K, 100 kPa, x1 = 0.0003783	–	0.59 ± 0.026
318.15 K, 100 kPa, x1 = 0.0004323	–	0.591 ± 0.026
318.15 K, 100 kPa, x1 = 0.0004863	–	0.592 ± 0.026
318.15 K, 100 kPa, x1 = 0.0005403	–	0.593 ± 0.026
